From patent publication US10555987B2, “GHRH agonists for the treatment of ischemic disorders” (UNIVERSITY OF MIAMI, priority 2012, dated 2020)
Values joined by “and” are separate entries in the source; they are usually repeats but may differ in a detail not shown here. Equal entries are not always repeated. One block for each compound: values may come before it. Non-standard residues stand in square brackets, D forms with d. Residues, ends and D or L forms follow the SMILES beside them. *: point of attachment. Desaminotyrosyl = O=C(CCc1ccc(O)cc1)*; NMeY = CN[C@@H](Cc1ccc(O)cc1)C(=O)O; Agmatine = N=C(N)NCCCCN*; Nle = CCCC[C@H](N)C(=O)O; Orn = NCCC[C@H](N)C(=O)O; dAbu = CC[C@@H](N)C(=O)O; Abu = CC[C@H](N)C(=O)O; Ava = NCCCCC(=O)O; GABA = NCCCC(=O)O

Columns and labels:
GHRH receptor [1] = biological target: T1, GHRH receptor (Homo sapiens, UniProt Q02643); experiment: GHRH receptor binding, competition with 125I-labeled [His1,Nle27]hGHRH(1-32)NH2, human pituitary membrane homogenates (Table 6); design: Normal human pituitaries were purchased from the National Hormone and Peptide Program; tissue National Hormone and Peptide Program (A.F. Parlow, Harbor-UCLA Medical Center, Torrance, Calif.); host or cells: normal human pituitary, membrane fraction; settings: GHRH(1-29) = 1, Table 6
T1 sequence (Q02643 23-423): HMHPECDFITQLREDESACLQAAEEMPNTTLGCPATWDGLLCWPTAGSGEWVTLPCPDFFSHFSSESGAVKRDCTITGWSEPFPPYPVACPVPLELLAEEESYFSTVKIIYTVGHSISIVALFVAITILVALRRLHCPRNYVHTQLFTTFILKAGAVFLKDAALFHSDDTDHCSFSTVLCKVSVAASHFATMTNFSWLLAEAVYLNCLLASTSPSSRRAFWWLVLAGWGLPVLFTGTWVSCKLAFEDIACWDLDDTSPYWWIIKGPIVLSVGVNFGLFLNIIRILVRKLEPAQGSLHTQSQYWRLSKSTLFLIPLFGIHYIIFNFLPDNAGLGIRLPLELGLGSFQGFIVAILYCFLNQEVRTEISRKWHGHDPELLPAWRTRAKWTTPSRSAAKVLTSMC
Description: (§1) Normal human pituitaries were purchased from the National Hormone and Peptide Program (A.F. Parlow, Los Angeles, County Harbor-UCLA Medical Center, Torrance, Calif.).

GH release [2] = experiment: In vivo endocrine activity, GH release after intravenous administration (Table 8); settings: rat, i.v. injection
Procedure: In vivo tests on endocrine activity of new GHRH agonists (Intravenous administration). For in vivo tests based on intravenous administration, adult male Sprague-Dawley rats were anesthetized with pentobarbital (6 mg/100/g, b.w.), and GHRH agonists were injected 20 minutes after the injection of pentobarbital. Blood samples were taken from the jugular vein (pretreated level), immediately after hGHRH(1-29)NH2 injection (as a control) or after hGHRH analogs injection. Blood samples were taken from the jugular vein 5, 15 and 30 minutes after the injection. The blood samples were centrifuged, plasma was removed and the GH level was measured by ELISA.

GH release [3] = experiment: In vivo endocrine activity, GH release after subcutaneous administration (Table 9); settings: rat; for GH releasing potency relative to JI-38 (=1): subcutaneous (s.c.) injection
Procedure: Subcutaneous Administration. Adult male rats were used and anesthetized with pentobarbital (6 mg/100 g, b.w.), by i.p. injection. […] Blood samples were taken from the jugular vein 5, 15 and/or 30 minutes after the injection. The blood samples were centrifuged, plasma was removed and the GH level was measured byELISA. The results are summarized in terms of potency in Table 9.

GH release [4] = experiment: GH releasing potency in vivo, subcutaneous administration (Example 14, Table 12); design: species or system rat; settings: s.c.; for Serum GH level at selected time after injection (ng/ml), 0 min / Serum GH level at selected time after injection (ng/ml), 15 min / Serum GH level at selected time after injection (ng/ml), 30 min: male rats, dose 3 μg/kg, mean ± SEM
In short: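 Potency is expressed relative to GHRH(1-29)NH2 and JI-38 (each = 1), via equivalent GHRH(1-29)NH2 dose read from a standard curve. Peptides in 5% mannitol given i.v. or s.c. to anaesthetised male Sprague-Dawley rats (200-250 g); serum GH measured by ELISA at selected times.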

GHRH receptor [5] = biological target: T1, GHRH receptor; experiment: Receptor binding in vitro, 125I-labeled [His1,Nle27]-hGHRH(1-32)NH2, membrane receptors of human anterior pituitary cells (Table 14); settings: for Relative affinity (Binding potency) compared to JI-38: JI-38 = 1; for Relative affinity (Binding potency) compared to hGHRH(1-29): hGHRH(1-29)NH2 = 1
GHRH receptor [6] = biological target: T1, GHRH receptor; experiment: GHRH receptor binding, competition with 125I-labeled JV-1-42, human pituitary membrane homogenates (Table 7); design: Normal human pituitaries were purchased from the National Hormone and Peptide Program; tissue National Hormone and Peptide Program (A.F. Parlow, Harbor-UCLA Medical Center, Torrance, Calif.); host or cells: normal human pituitary, membrane fraction; settings: JI-38 = 1, Table 7
Description: as §1

GH release [7] = experiment: GH releasing potency in vivo, intravenous administration (Example 14, Table 13); design: species or system rat; settings: i.v.
Procedure: Male Sprague-Dawley rats, weighing 200-250 g, were purchased from Charles River Laboratory (Wilmington, Mass.) and used for experiments. All animal procedures were approved by the Veterans Affairs Animal Care and Use Committee and were conducted in accordance with additional institutional guidelines as well. Briefly, groups of 5-6 animals were used in each experiment. The rats were anesthetized with 50 mg/kg of sodium pentobarbital (Nembutal, Lundbeck Inc., Deerfield, Ill.). Twenty min after inducing anesthesia, GHRH(1-29)NH2, JI-38, or new analogs were injected into the animals intravenously (i.v.) or subcutaneously (s.c.). The peptides were dissolved in 0.01 M acetic acid to get 1 μg/μl stock solution, and then diluted with 5% mannitol. Control rats received 5% mannitol only. Blood samples were collected from the jugular vein at selected times and were used for serum preparation. Concentrations of GH in rat sera were determined by ELISA. The relative potencies of tested peptides were calculated using GHRH(1-29)NH2 and JI-38 for comparison, whose potency was defined as 1. The equivalent dosage of GHRH(1-29)NH2 to reach the same level of serum growth hormone release after injection of the specific tested peptide was determined from a GHRH(1-29)NH2 standard curve using Origin 6.0 software. […] Serum GH was determined using the rat Growth Hormone ELISA kit (ALPCO Diagnostics, Mill Valley, Calif.) according to the manufacturer's instruction. Absorbance at 405 nm was measured by a Victor 3 Multi-label Counter (Perkin-Elmer, Waltham, Md.).

SMILES: CCCC[C@H](NC(=O)[C@@H](NC(=O)[C@H](CC(=O)O)NC(=O)[C@H](CCC(N)=O)NC(=O)[C@H](CC(C)C)NC(=O)[C@H](CC(C)C)NC(=O)[C@H](CCCN)NC(=O)[C@H](CCCNC(=N)N)NC(=O)[C@H](C)NC(=O)[C@H](CO)NC(=O)[C@H](CC(C)C)NC(=O)[C@H](CCC(N)=O)NC(=O)[C@H](CC)NC(=O)[C@H](CC(C)C)NC(=O)[C@@H](NC(=O)[C@H](CCCN)NC(=O)[C@H](CCCNC(=N)N)NC(=O)[C@H](Cc1ccc(O)cc1)NC(=O)[C@H](CO)NC(=O)[C@H](CC(N)=O)NC(=O)[C@@H](NC(=O)[C@H](Cc1ccccc1)NC(=O)[C@@H](NC(=O)[C@H](C)NC(=O)[C@H](CC(=O)O)NC(=O)[C@H](C)NC(=O)CCc1ccc(O)cc1)[C@@H](C)CC)[C@@H](C)O)C(C)C)[C@@H](C)CC)C(=O)N[C@@H](CC(=O)O)C(=O)NCCCCNC(=N)N [JI-34, reference compound] (Desaminotyrosyl-ADAIFTNSYR[Orn]VL[Abu]QLSAR[Orn]LLQDI[Nle]D-Agmatine; N-terminus and C-terminus assumed)
Relative affinity (Binding potency) vs GHRH (GHRH receptor [1]): 4.32

Relative affinity (Binding potency) compared to JI-38 (GHRH receptor [5]): 2.80 | Relative affinity (Binding potency) compared to hGHRH(1-29) (GHRH receptor [5]): 7.81 | Relative affinity (Binding potency) vs JI-38 (GHRH receptor [6]): 6.12
SMILES: CCCC[C@H](NC(=O)[C@@H](NC(=O)[C@H](CC(=O)O)NC(=O)[C@H](CCC(N)=O)NC(=O)[C@H](CC(C)C)NC(=O)[C@H](CC(C)C)NC(=O)[C@H](CCCN)NC(=O)[C@H](CCCNC(=N)N)NC(=O)[C@H](C)NC(=O)[C@H](CO)NC(=O)[C@H](CC(C)C)NC(=O)[C@H](CCC(N)=O)NC(=O)[C@H](CC)NC(=O)[C@H](CC(C)C)NC(=O)[C@@H](NC(=O)[C@H](CCCN)NC(=O)[C@H](CCCNC(=N)N)NC(=O)[C@H](Cc1ccc(O)cc1)NC(=O)[C@H](CO)NC(=O)[C@H](CCC(N)=O)NC(=O)[C@@H](NC(=O)[C@H](Cc1ccccc1)NC(=O)[C@@H](NC(=O)[C@H](C)NC(=O)[C@H](CC(=O)O)NC(=O)[C@@H](C)NC(=O)[C@H](Cc1ccc(O)cc1)NC)[C@@H](C)CC)[C@@H](C)O)C(C)C)[C@@H](C)CC)C(=O)N[C@@H](CC(=O)O)C(=O)N[C@@H](CCCNC(=N)N)C(=O)NCCCCC(N)=O [Peptide P-22326, [N—Me-Tyr^1, D-Ala^2, Gln^8, Orn^12, Abu^15, Orn^21, Nle^27, Asp^28, Apa^30] hGHRH(1-30)NH2] (H-[NMeY][dA]DAIFTQSYR[Orn]VL[Abu]QLSAR[Orn]LLQDI[Nle]DR[Ava]-NH2)
GH releasing potency in vivo relative to JI-38 (=1) (GH release [2]; 15 min after): 0.28 | GH releasing potency in vivo relative to JI-38 (=1) (GH release [2]; 30 min after): 0.94 | Stimulation of growth hormone levels after subcutaneous administration (in words) (GH release [3]; s.c.): stimulated greater growth hormone levels than hGHRH or JI-38 | GH releasing potency relative to JI-38 (=1) (GH release [3]; 15 min after): 1.76 | GH releasing potency relative to JI-38 (=1) (GH release [3]; 30 min after): 2.31 | Serum GH level at selected time after injection (ng/ml), 0 min (GH release [4]): 43.7 ± 6.4 ng/mL | Serum GH level at selected time after injection (ng/ml), 15 min (GH release [4]): 309.2 ± 33.5 ng/mL | Serum GH level at selected time after injection (ng/ml), 30 min (GH release [4]): 225.9 ± 19.8 ng/mL | GH-releasing potency after s.c. administration (in words) (GH release [4]): significantly higher potencies at 30 minutes than at 15 minutes | Relative potency compared to GHRH(1-29), 15 min (GH release [4]): 92.7 | Relative potency compared to JI-38, 15 min (GH release [4]; listed as MR-326): 1.5 and 1.47 | Relative potency compared to GHRH(1-29), 30 min (GH release [4]): 303.4 | Relative potency compared to JI-38, 30 min (GH release [4]; listed as MR-326): 2.7 and 2.71

Relative affinity (Binding potency) compared to JI-38 (GHRH receptor [5]): 0.96 | Relative affinity (Binding potency) compared to hGHRH(1-29) (GHRH receptor [5]): 2.68 | Relative affinity (Binding potency) vs JI-38 (GHRH receptor [6]): 3.02
SMILES: CCCC[C@H](NC(=O)[C@@H](NC(=O)[C@H](CC(=O)O)NC(=O)[C@H](CCC(N)=O)NC(=O)[C@H](CC(C)C)NC(=O)[C@H](CC(C)C)NC(=O)[C@H](CCCN)NC(=O)[C@H](CCCNC(=N)N)NC(=O)[C@H](C)NC(=O)[C@H](CO)NC(=O)[C@H](CC(C)C)NC(=O)[C@H](CCC(N)=O)NC(=O)[C@H](CC)NC(=O)[C@H](CC(C)C)NC(=O)[C@@H](NC(=O)[C@H](CCCN)NC(=O)[C@H](CCCNC(=N)N)NC(=O)[C@H](Cc1ccc(O)cc1)NC(=O)[C@H](CO)NC(=O)[C@H](CC(N)=O)NC(=O)[C@@H](NC(=O)[C@H](Cc1ccccc1)NC(=O)[C@@H](NC(=O)[C@H](C)NC(=O)[C@H](CC(=O)O)NC(=O)[C@@H](CC)NC(=O)CCc1ccc(O)cc1)[C@@H](C)CC)[C@@H](C)O)C(C)C)[C@@H](C)CC)C(=O)N[C@@H](CO)C(=O)N[C@@H](CCCNC(=N)N)C(=O)NCCCC(N)=O [Peptide P-25504, [Dat^1, D-Abu^2, Orn^12, Abu^15, Orn^21, Nle^27, Gab^30]hGHRH(1-30)NH2] (Desaminotyrosyl-[dAbu]DAIFTNSYR[Orn]VL[Abu]QLSAR[Orn]LLQDI[Nle]SR[GABA]-NH2)
GH releasing potency in vivo relative to JI-38 (=1) (GH release [2]; 5 min after): 1.66 | GH releasing potency in vivo relative to JI-38 (=1) (GH release [2]; 15 min after): 1.65 | GH releasing potency in vivo relative to JI-38 (=1) (GH release [2]; 30 min after): 1.37 | GH releasing potency relative to JI-38 (=1) (GH release [3]; 15 min after): 0.78 | GH releasing potency relative to JI-38 (=1) (GH release [3]; 30 min after): 0.98 | Serum GH level at selected time after injection (ng/ml), 0 min (GH release [4]): 25.4 ± 4.1 ng/mL | Serum GH level at selected time after injection (ng/ml), 15 min (GH release [4]): 200.0 ± 10.7 ng/mL | Serum GH level at selected time after injection (ng/ml), 30 min (GH release [4]): 130.0 ± 19.1 ng/mL | Relative potency compared to GHRH(1-29), 15 min (GH release [4]): 52.6 | Relative potency compared to JI-38, 15 min (GH release [4]): 0.83 | Relative potency compared to GHRH(1-29), 30 min (GH release [4]): 113.8 | Relative potency compared to JI-38, 30 min (GH release [4]): 1.02 | Relative potency, 5 min (GH release [7]; 5 min, JI-38 = 1): 1.55 | Relative potency, 15 min (GH release [7]; 15 min, JI-38 = 1): 1.50 | Serum GH level at selected time after injection (ng/ml), 0 min (GH release [7]; dose 1 μg/kg, 0 min, mean ± SEM): 25.7 ± 6.3 ng/mL | Serum GH level at selected time after injection (ng/ml), 5 min (GH release [7]; dose 1 μg/kg, 5 min, mean ± SEM): 832 ± 214 ng/mL | Serum GH level at selected time after injection (ng/ml), 15 min (GH release [7]; dose 1 μg/kg, 15 min, mean ± SEM): 297 ± 45.6 ng/mL
